Measured values as given in ChEMBL document CHEMBL3813664, “Synthesis and evaluation of biphenyl derivatives as potential downregulators of VEGF protein secretion and telomerase-related gene expressions” (Bioorg Med Chem, 2016).
Converted amounts (≈) assume the structure as drawn. The source made the active and inactive calls. No cut-off for these calls is given here.

Assays:
[1] = tested on: HEK293; assay: Cytotoxicity against HEK293 cells assessed as reduction in cell growth after 3 days by MTT assay; assay type: cell-based; conditions: Homo sapiens, HEK293, 72 h
[2] = tested on: HT-29; assay: Cytotoxicity against human HT-29 cells assessed as reduction in cell growth after 3 days by MTT assay; assay type: functional, cell-based; conditions: HT-29, 72 h
[3] = tested on: MCF7; assay: Cytotoxicity against human MCF7 cells assessed as reduction in cell growth after 3 days by MTT assay; assay type: functional, cell-based; conditions: MCF7, 72 h
[4] = Therapeutic index, ratio of IC50 for HEK293 cells to IC50 for human HT-29 cells; assay type: cell-based; conditions: HEK293 cells versus HT-29 cells, read-out: Ratio IC50
[5] = tested on: HT-29; assay: Downregulation of VEGFA-165 secretion in human HT-29 cells assessed as protein secretion levels at 30 ug/ml after 72 hrs by ELISA relative to control; assay type: functional
[6] = tested on: HT-29; assay: Downregulation of VEGFA gene expression in human HT-29 cells assessed as gene expression levels at 30 ug/ml after 48 hrs by RT-qPCR analysis relative to control; assay type: functional
[7] = tested on: HT-29; assay: Downregulation of TERT gene expression in human HT-29 cells assessed as gene expression levels at 30 ug/ml after 48 hrs by RT-qPCR analysis relative to control; assay type: functional
[8] = tested on: HT-29; assay: Downregulation of c-Myc gene expression in human HT-29 cells assessed as gene expression levels at 30 ug/ml after 48 hrs by RT-qPCR analysis relative to control; assay type: functional
[9] = Therapeutic index, ratio of IC50 for HEK293 cells to IC50 for human MCF7 cells; assay type: cell-based; conditions: HEK293 cells versus MCF7 cells, read-out: Ratio IC50
[10] = tested on: HT-29; assay: Downregulation of VEGFA-165 secretion in human HT-29 cells assessed as protein secretion levels at 5 ug/ml after 72 hrs by ELISA relative to control; assay type: functional
[11] = tested on: HT-29; assay: Downregulation of VEGFA gene expression in human HT-29 cells assessed as gene expression levels at 5 ug/ml after 48 hrs by RT-qPCR analysis relative to control; assay type: functional
[12] = tested on: HT-29; assay: Downregulation of TERT gene expression in human HT-29 cells assessed as gene expression levels at 5 ug/ml after 48 hrs by RT-qPCR analysis relative to control; assay type: functional
[13] = tested on: HT-29; assay: Downregulation of c-Myc gene expression in human HT-29 cells assessed as gene expression levels at 5 ug/ml after 48 hrs by RT-qPCR analysis relative to control; assay type: functional
[14] = tested on: HT-29; assay: Downregulation of VEGFA-165 secretion in human HT-29 cells assessed as protein secretion levels at <1.1 ug/ml after 72 hrs by ELISA relative to control; assay type: functional, cell-based
[15] = tested on: HT-29; assay: Downregulation of VEGFA-165 secretion in human HT-29 cells assessed as protein secretion levels at 15 ug/ml after 72 hrs by ELISA relative to control; assay type: functional
[16] = tested on: HT-29; assay: Downregulation of VEGFA gene expression in human HT-29 cells assessed as gene expression levels at 15 ug/ml after 48 hrs by RT-qPCR analysis relative to control; assay type: functional
[17] = tested on: HT-29; assay: Downregulation of TERT gene expression in human HT-29 cells assessed as gene expression levels at 15 ug/ml after 48 hrs by RT-qPCR analysis relative to control; assay type: functional
[18] = tested on: HT-29; assay: Downregulation of c-Myc gene expression in human HT-29 cells assessed as gene expression levels at 15 ug/ml after 48 hrs by RT-qPCR analysis relative to control; assay type: functional
[19] = tested on: HT-29; assay: Downregulation of VEGFA-165 secretion in human HT-29 cells assessed as protein secretion levels at 10 ug/ml after 72 hrs by ELISA relative to control; assay type: functional
[20] = tested on: HT-29; assay: Downregulation of VEGFA gene expression in human HT-29 cells assessed as gene expression levels at 10 ug/ml after 48 hrs by RT-qPCR analysis relative to control; assay type: functional
[21] = tested on: HT-29; assay: Downregulation of TERT gene expression in human HT-29 cells assessed as gene expression levels at 10 ug/ml after 48 hrs by RT-qPCR analysis relative to control; assay type: functional
[22] = tested on: HT-29; assay: Downregulation of c-Myc gene expression in human HT-29 cells assessed as gene expression levels at 10 ug/ml after 48 hrs by RT-qPCR analysis relative to control; assay type: functional
[23] = tested on: HT-29; assay: Downregulation of VEGFA-165 secretion in human HT-29 cells assessed as protein secretion levels at 3 ug/ml after 72 hrs by ELISA relative to control; assay type: functional
[24] = tested on: HT-29; assay: Downregulation of VEGFA gene expression in human HT-29 cells assessed as gene expression levels at 3 ug/ml after 48 hrs by RT-qPCR analysis relative to control; assay type: functional
[25] = tested on: HT-29; assay: Downregulation of TERT gene expression in human HT-29 cells assessed as gene expression levels at 3 ug/ml after 48 hrs by RT-qPCR analysis relative to control; assay type: functional
[26] = tested on: HT-29; assay: Downregulation of c-Myc gene expression in human HT-29 cells assessed as gene expression levels at 3 ug/ml after 48 hrs by RT-qPCR analysis relative to control; assay type: functional
[27] = tested on: HT-29; assay: Downregulation of VEGFA-165 secretion in human HT-29 cells assessed as protein secretion levels at 20 ug/ml after 72 hrs by ELISA relative to control; assay type: functional
[28] = tested on: HT-29; assay: Downregulation of VEGFA gene expression in human HT-29 cells assessed as gene expression levels at 20 ug/ml after 48 hrs by RT-qPCR analysis relative to control; assay type: functional
[29] = tested on: HT-29; assay: Downregulation of TERT gene expression in human HT-29 cells assessed as gene expression levels at 20 ug/ml after 48 hrs by RT-qPCR analysis relative to control; assay type: functional
[30] = tested on: HT-29; assay: Downregulation of c-Myc gene expression in human HT-29 cells assessed as gene expression levels at 20 ug/ml after 48 hrs by RT-qPCR analysis relative to control; assay type: functional

COc1ccc(-c2ccccc2O)c(OC)c1
IC50 [1]: > 100 µg/mL | IC50 [2]: 33.7 µg/mL (≈ 146 µM) | IC50 [3]: > 100 µg/mL | selectivity ratio [4]: > 3 | Activity [5]: 29% | Activity [6]: 56% | Activity [7]: 29% | Activity [8]: 54%

COc1cccc(-c2ccccc2)c1
IC50 [1]: 5.5 µg/mL (≈ 29.9 µM) | IC50 [2]: 1.1 µg/mL (≈ 5.97 µM) | IC50 [3]: 47 µg/mL (≈ 255 µM) | selectivity ratio [4]: 5.1 | selectivity ratio [9]: 0.1 | Activity [10]: 57% | Activity [11]: 73% | Activity [12]: 77% | Activity [13]: 81% | Activity [14]: inactive

COc1cccc(-c2ccc(O)cc2)c1
IC50 [1]: 35 µg/mL (≈ 175 µM) | IC50 [2]: 24 µg/mL (≈ 120 µM) | IC50 [3]: 41 µg/mL (≈ 205 µM) | selectivity ratio [4]: 1.5 | selectivity ratio [9]: 0.9 | Activity [15]: 48% | Activity [16]: 51% | Activity [17]: 35% | Activity [18]: 34%

COc1ccc(-c2ccc(O)cc2)c(OC)c1
IC50 [1]: > 100 µg/mL | IC50 [2]: 21 µg/mL (≈ 91.2 µM) | IC50 [3]: 47 µg/mL (≈ 204 µM) | selectivity ratio [4]: > 5 | selectivity ratio [9]: > 2 | Activity [15]: 35% | Activity [16]: 37% | Activity [17]: 56% | Activity [18]: 87%

COc1cccc(-c2cccc(O)c2)c1
IC50 [1]: 34 µg/mL (≈ 170 µM) | IC50 [2]: 16 µg/mL (≈ 79.9 µM) | IC50 [3]: 33 µg/mL (≈ 165 µM) | selectivity ratio [4]: 2 | selectivity ratio [9]: 1 | Activity [19]: 31% | Activity [20]: 21% | Activity [21]: 88% | Activity [22]: 71%

COc1ccccc1-c1cccc(O)c1
IC50 [1]: 50 µg/mL (≈ 250 µM) | IC50 [2]: 22 µg/mL (≈ 110 µM) | IC50 [3]: 44 µg/mL (≈ 220 µM) | selectivity ratio [4]: 2.3 | selectivity ratio [9]: 1.1 | Activity [15]: 31% | Activity [16]: 76% | Activity [17]: 62% | Activity [18]: 50%

COc1ccc(-c2ccccc2N)cc1OC
IC50 [1]: 49.9 µg/mL (≈ 218 µM) | IC50 [2]: 15 µg/mL (≈ 65.4 µM) | IC50 [3]: 18 µg/mL (≈ 78.5 µM) | selectivity ratio [4]: 3.3 | selectivity ratio [9]: 3 | Activity [15]: 56% | Activity [16]: 61% | Activity [17]: 86% | Activity [18]: 50%

COc1ccc(-c2ccc(N)cc2)cc1OC
IC50 [1]: 23 µg/mL (≈ 100 µM) | IC50 [2]: 2 µg/mL (≈ 8.72 µM) | IC50 [3]: 5.5 µg/mL (≈ 24 µM) | selectivity ratio [4]: 12 | selectivity ratio [9]: 4 | Activity [23]: 48% | Activity [24]: 48% | Activity [25]: 100% | Activity [26]: 92%

Nc1ccccc1-c1cccc(O)c1
IC50 [1]: 10.5 µg/mL (≈ 56.7 µM) | IC50 [2]: 9.2 µg/mL (≈ 49.7 µM) | IC50 [3]: 16 µg/mL (≈ 86.4 µM) | selectivity ratio [4]: 1.1 | selectivity ratio [9]: 0.7 | Activity [23]: 48% | Activity [24]: 54% | Activity [25]: 77% | Activity [26]: 38%

Oc1cccc(-c2ccccc2O)c1
IC50 [1]: > 100 µg/mL | IC50 [2]: 5.2 µg/mL (≈ 27.9 µM) | IC50 [3]: > 100 µg/mL | selectivity ratio [4]: > 19 | Activity [23]: 57% | Activity [24]: 10% | Activity [25]: 18% | Activity [26]: 87%

Oc1ccc(-c2ccccc2)cc1
IC50 [1]: 45 µg/mL (≈ 264 µM) | IC50 [2]: 25 µg/mL (≈ 147 µM) | IC50 [3]: 47 µg/mL (≈ 276 µM) | selectivity ratio [4]: 2 | selectivity ratio [9]: 1 | Activity [27]: 48% | Activity [28]: 65% | Activity [29]: 81% | Activity [30]: 55%

COc1ccc(-c2ccc(N)cc2)c(OC)c1
IC50 [1]: 22 µg/mL (≈ 96 µM) | IC50 [2]: 2.2 µg/mL (≈ 9.6 µM) | IC50 [3]: > 100 µg/mL | selectivity ratio [4]: 10 | selectivity ratio [9]: < 0.2 | Activity [23]: 51% | Activity [24]: 41% | Activity [25]: 40% | Activity [26]: 39%
